Test results from article PMC4302236, “Functional profile of a novel modulator of serotonin, dopamine, and glutamate neurotransmission” (Psychopharmacology, 2014).
Marks after values point to notes of the source that are not given here. Values belong to the compound of their own block, whether it stands above or below them.

What was measured:
extracellular dopamine = experiment: In vivo microdialysis of dopamine and DOPAC in striatum and prefrontal cortex; details: rats
Method: On the day of the experiment (24–48 h after surgery), the microdialysis probes of each animal were connected via the use of flexible PEEK tubing to a microperfusion pump (Harvard Apparatus, PHD 2000 Holliston, MA). Artificial CSF, composed of 147 mM NaCl, 3 mM KCl, 1.2 mM CaCl2, and 1.2 mM MgCl2 was used to perfuse the probes (1.5 μl/min) beginning at 75 min prior to drug treatment. Baseline dialysate collection was begun for all rats 60 min prior to drug administration (t=−60 min) such that a total of […] were collected prior to drug treatment (t=0). […] A control group of rats (N=9) received only the 0.5 % methylcellulose vehicle solution, delivered orally (p.o.). All drug solutions were delivered in a volume of 1 ml/kg of body weight. Every 20 min for the following 3 h, dialysate was collected from both brain regions of each rat. Dialysates were collected into mini-vials containing 7.5 μl of 0.02 M formic acid using an automated fraction collector Univentor 820, Malta. Tubes containing dialysate samples were then frozen at −80 °C until analyzed by HPLC for levels of dopamine and the dopamine metabolite, DOPAC. […] Coronal sections were prepared of each rat brain to verify the position of the dialysis collection probes. Dopamine and DOPAC concentrations were determined in each sample using HPLC separation and electrochemical detection. An aliquot (20 μl) of each dialysate sample was injected onto the HPLC column by means of a refrigerated microsampler system, consisting of a syringe pump (Gilson, model 402), a multi-column injector (Gilson, model 233 XL), and a temperature regulator (Gilson, model 832). The chromatographic separation was performed on a reverse-phase 150 ×2.1 mm (3 μm) C18 Thermo BDS Hypersil column (Keystone Scientific). […] The mobile phase was run at a flow rate of 0.35 ml/min using an HPLC pump (Shimadzu, model LC-10AD vp). Dopamine and DOPAC were electrochemically detected using a potentiostat (Antec Leyden, model Intro) fitted with a glassy carbon electrode set a +500 mV versus Ag/AgCl (Antec, Leyden). Data were analyzed using Chromatography Data System software (Shimadzu, Class-VP, Japan) using an external standard method to quantify concentrations of dopamine and DOPAC. […] Drug effects were expressed as percentages of basal level (mean±SEM) within the same subject. Statistical analysis was performed using Sigmastat for Windows (SPSS Corporation). Drug effects were compared with baseline and vehicle control using a two-way ANOVA for repeated measurements followed by the Newman–Keuls post hoc test. […] For all tests, the level of statistical significance was set at p<0.05.

[1] = system: striatal dopamine metabolism; experiment: Striatal dopamine metabolism (HPLC-EC of DA, DOPAC, HVA); assay type: in vivo, mice; details: for DOPAC/DA, chronic (21 day) dosing, mean / HVA/DA, chronic (21 day) dosing, mean: striatum 2 h after last dose; for DOPAC/DA, acute (2 h) dosing, mean / HVA/DA, acute (2 h) dosing, mean: striatum 2 h after dose
Method: Measurements of tissue dopamine levels were performed at CDC-NIOSH. […] Striatum was rapidly dissected from each mouse brain, weighed, and placed into Eppendorf tubes that were frozen in liquid nitrogen and stored at -80 °C. […] Tissues were homogenized in 100 μl of ice-cold 0.2 M perchloric acid containing 1 μM dihydroxybenzylamine (DHBA) as an internal standard and centrifuged at 10,000×g for 10 min at 4 °C. The supernatant was filtered through a 0.2 μm nitrocellulose membrane, and an aliquot (10 μl) was injected from a temperature-controlled (4 °C) automatic sample injector (Waters 717plus Autosampler) connected to a Waters 515 HPLC pump. Catecholamines were separated on a C18 reverse-phase column ([…]; Waters […] 25 cm×4.6 mm; 5 μm), electrochemically detected (Waters 464 Pulsed Electrochemical Detector; range 10 nA, potential +0.7 V), and analyzed using Millennium software. […] A flow rate of 1 ml/min was used. […] The recovery of each analyte was adjusted with respect to the internal standard and quantified from a standard curve. The levels of dopamine and its metabolites, DOPAC and HVA, were calculated from the AUC values for each (based on microgram per gram (μg/g) tissue wet weight) and expressed as a percent of the saline control.

[2] = system: serine 40 (S40)-phosphorylated tyrosine hydroxylase; experiment: Striatal tyrosine hydroxylase S40 phosphorylation state (CNSProfile immunoblotting); assay type: in vivo; details: mice, acute; ITI-007 3 mg/kg p.o., clozapine 5 i.p., aripiprazole 10 p.o., olanzapine 1 i.p., risperidone 3 p.o., haloperidol 1 i.p.; over 60 min; vs vehicle
Method: The effect of the selected compounds on the phosphorylation state of tyrosine hydroxylase (TH) was measured and quantitated as an indicator of the potential of each compound to perturb presynaptic dopamine synthesis in striatum. […] This technique preserves in vivo levels of brain protein phosphorylation ([Zhu et al. 2010]). […] Small aliquots of the homogenate were retained for protein determination by the bicinchoninic acid (BCA) protein assay method (Pierce Chemical Co., Rockford, IL). […] Immunoblotting was carried out using a phos-phorylation state-specific polyclonal antibody raised against […] (S40)-phosphorylated tyrosine hydroxylase (Chemicon, Temecula, CA) and a pan-TH monoclonal antibody for measuring the total protein levels (BD Biosciences, San Jose, CA). […] Antibody binding was detected and quantitated using a LiCor Odyssey infrared fluorescent detection system. Phosphorylation at each site detected by phospho-specific antibodies was quantified, normalized to total levels of the protein (non-phosphorylated), and expressed as percent±SEM of the level of phosphorylation in vehicle-treated control mice (N=6).

[3] = system: D-AMPH-induced hyperactivity; experiment: Inhibition of D-amphetamine-induced hyperactivity; assay type: in vivo; details: rats, p.o.; D-AMPH 1 mg/kg i.p.; distance traveled over 2 h
Method: Male Sprague–Dawley rats (200–250 g, N=4/treatment group) were habituated to Lucite locomotor activity chambers comprising an AccuScan activity monitoring system (AccuScan Instruments, Inc., Columbus, OH) were maintained in a quiet observation room kept under low light conditions. […] The rats were briefly removed from the activity chambers 60 min later to receive an injection of D-amphetamine hydrochloride (D-AMPH; 1 mg/kg in 1 ml/kg, i.p.). The animals were returned to the activity chambers, and locomotor activity was then recorded for 2 h using system software. Activity was quantitated as distance traveled (cm) over 2 h for each group. Inhibitory activity was calculated as the percent of total activity observed at each dose level of each drug versus animals receiving D-AMPH alone. An ID50 for inhibition of D-AMPH-induced hyperactivity was calculated for each compound.

forelimb catalepsy = experiment: Forelimb catalepsy, bar grip test; details: mice, 3 mg/kg p.o.; each time point (120-360 min); vs vehicle
Method: Forelimb catalepsy was measured using the bar grip test. Mice were placed in a Lucite mouse cage outfitted with a 3-mm diameter wooden rod suspended 4 cm from the floor of the cage. During testing, the mouse was allowed to grip the bar firmly with hind legs placed firmly on the floor of the cage. The mouse was required to maintain this posture for at least 10 s for a valid test session. Catalepsy was then quantitated by recording the latency (in seconds) to step both front paws down to the floor of the cage up to a maximum time of 120 s. If the mouse stepped off the bar immediately (less than 10 s), another attempt was made up to a maximum of ten attempts. The longest duration of immobility was recorded if none of the ten attempts were beyond 10 s. Catalepsy was measured for each mouse at 2, 3, 4, and 6 h after drug administration. Mean forelimb catalepsy time (in seconds) was calculated across each group and time point. Data were analyzed using ANOVA with Newman–Keuls post hoc test.

[4] = system: GluN2B phosphorylated at tyrosine (Y) 1472; experiment: GluN2B Y1472 phosphorylation state in nucleus accumbens; assay type: in vivo; details: mice, 1 mg/kg p.o., 120 min after administration
Method: Brains were rapidly removed from the skull. […] Brain tissue was prepared for SDS-PAGE as described above, and protein homogenates (15 μg) were separated on 3-7 % gradient gels, and proteins transferred to nitrocellulose membranes. Portions of each membrane were immunoblotted for GluN2B phosphorylated at […] (rabbit polyclonal) and total GluN2B (mouse monoclonal) (Thermo Fisher Scientific, Rockford, IL).

[5] = 3 mg/kg p.o. once daily 21 days
[6] = 30 mg/kg p.o. once daily 21 days
[7] = 1 mg/kg p.o. once daily 21 days
[8] = 10 mg/kg p.o. once daily 21 days

Compound: Cc1cc2c(s1)Nc1ccccc1N=C2N1CCN(C)CC1 [Olanzapine]
- Effect on TH phosphorylation at S40 in striatum [2]: significantly increase

Compound: Cc1nc2n(c(=O)c1CCN1CCC(c3noc4cc(F)ccc34)CC1)CCCC2 [Risperidone]
- DOPAC/DA, chronic (21 day) dosing, mean [1, 7]: 16.35 ^*, ^**, ^***
- HVA/DA, chronic (21 day) dosing, mean [1, 7]: 29.37 ^*, ^**, ^***
- DOPAC/DA, acute (2 h) dosing, mean ([1]; 1 mg/kg p.o. once): 14.35 ^*, ^**, ^***
- HVA/DA, acute (2 h) dosing, mean ([1]; 1 mg/kg p.o. once): 30.71 ^*, ^**, ^***
- DOPAC/DA, chronic (21 day) dosing, mean [1, 8]: 25.12 ^*, ^**, ^***
- HVA/DA, chronic (21 day) dosing, mean [1, 8]: 36.39 ^*, ^**, ^***
- DOPAC/DA, acute (2 h) dosing, mean ([1]; 10 mg/kg p.o. once): 30.98 ^*, ^**, ^***
- HVA/DA, acute (2 h) dosing, mean ([1]; 10 mg/kg p.o. once): 23.06 ^*, ^**, ^***
- Effect on TH phosphorylation at S40 in striatum [2]: significantly increase
- ID50, inhibition of D-AMPH-induced hyperactivity [3]: 0.33 mg/kg

Second part, led by results:

- Effect on TH phosphorylation at S40 in striatum [2]: did not significantly affect
Compound: O=C1CCc2ccc(OCCCCN3CCN(c4cccc(Cl)c4Cl)CC3)cc2N1 [Aripiprazole]
- DA or DOPAC efflux in striatum or mPFC (extracellular dopamine; 30 mg/kg p.o.): did not significantly affect
- DOPAC/DA, chronic (21 day) dosing, mean [1, 5]: 8.27 ^*, ^**
- HVA/DA, chronic (21 day) dosing, mean [1, 5]: 12.14 ^*
- DOPAC/DA, acute (2 h) dosing, mean ([1]; 3 mg/kg p.o. once): 8.57
- HVA/DA, acute (2 h) dosing, mean ([1]; 3 mg/kg p.o. once): 12.63
- DOPAC/DA, chronic (21 day) dosing, mean [1, 6]: 7.25 ^*, ^**
- HVA/DA, chronic (21 day) dosing, mean [1, 6]: 12.32 ^*
- DOPAC/DA, acute (2 h) dosing, mean ([1]; 30 mg/kg p.o. once): 11.89
- HVA/DA, acute (2 h) dosing, mean ([1]; 30 mg/kg p.o. once): 11.20
- ID50, inhibition of D-AMPH-induced hyperactivity [3]: 4.65 mg/kg

- Effect on TH phosphorylation at S40 in striatum [2]: did not significantly affect
Compound: CN1CCN(C2=Nc3cc(Cl)ccc3Nc3ccccc32)CC1 [Clozapine]

- Effect on TH phosphorylation at S40 in striatum [2]: significantly increase
Compound: O=C(CCCN1CCC(O)(c2ccc(Cl)cc2)CC1)c1ccc(F)cc1 [Haloperidol]
- DA and DOPAC efflux in striatum (extracellular dopamine; 0.3 mg/kg s.c., p<0.001 vs vehicle): significant increase
- DA and DOPAC levels in mPFC (extracellular dopamine; 0.3 mg/kg s.c., p<0.01 (DA), p<0.001 (DOPAC) vs vehicle): elevated
- DOPAC/DA, chronic (21 day) dosing, mean [1, 7]: 18.26 ^*, ^**, ^***
- HVA/DA, chronic (21 day) dosing, mean [1, 7]: 29.23 ^*, ^**, ^***
- DOPAC/DA, acute (2 h) dosing, mean ([1]; 1 mg/kg p.o. once): 19.69 ^*, ^**, ^***
- HVA/DA, acute (2 h) dosing, mean ([1]; 1 mg/kg p.o. once): 31.04 ^*, ^**, ^***
- DOPAC/DA, chronic (21 day) dosing, mean [1, 5]: 17.00 ^*, ^**, ^***
- HVA/DA, chronic (21 day) dosing, mean [1, 5]: 24.15 ^*, ^**, ^***
- DOPAC/DA, acute (2 h) dosing, mean ([1]; 3 mg/kg p.o. once): 22.68 ^*, ^**, ^***
- HVA/DA, acute (2 h) dosing, mean ([1]; 3 mg/kg p.o. once): 28.14 ^*, ^**, ^***
- Forelimb catalepsy, bar grip test (forelimb catalepsy): profound forelimb catalepsy
- GluN2B phosphorylation at Y1472 in nucleus accumbens [4]: 177±28 % of control
- ID50, inhibition of D-AMPH-induced hyperactivity [3]: 0.04 mg/kg
